These compounds were tested against Beclin 1/Bcl-2 interaction (Homo sapiens (Human), UniProt P10415) (assay: Beclin 1/Bcl-2 AlphaLISA assay (dose-response)).
Type: binding
Source text: We also developed a high-throughput Beclin 1/Bcl-2 AlphaLISA assay to directly measure the in vitro interaction between Beclin 1 and Bcl-2. AlphaLISA is a bead-based proximity assay that is capable of measuring protein-protein interaction in homogeneous solution.^41 Oxygen singlet molecules are generated by Alpha donor beads upon irradiation at 680 nm and travel to acceptor beads in proximity. […] Thus, a measurable Alpha luminescence signal requires chemical energy transfer between the donor and acceptor beads, and a pair of interacting molecules immobilized on the beads stabilizes bead association to produce measurable Alpha signals.
We used purified recombinant Beclin 1 and Bcl-2 proteins for AlphaLISA, which were optimized for enhanced solubility and expression. Human Beclin 1 was expressed as a fusion protein with StrepII-SUMO at the N-terminus, and three residues on the aromatic finger of Beclin 1 were mutated (F359D/F360D/W361D) to improve solubility and protein stability.^42 These mutations are in the BARA domain, which is far from the BH3 motif recognized by Bcl-2. A recombinant Bcl-2-binding deficient mutant of Beclin 1 (StrepII-SUMO-Beclin 1^ΔBcl-2BD) was used as a negative control. […] For a normalization control, we included a parallel AlphaLISA assay with purified SUMO protein (with an N-terminal StrepII tag and a C-terminal 6xHis tag). The purpose of a normalization control is to eliminate inner filter (false-positive) hits that reduce luminescence signal by interfering with the AlphaLISA assay in ways that are unrelated to the Beclin 1/Bcl-2 interaction. With the normalization control, the interaction of Beclin 1 and Bcl-2 was measured as follows:
All AlphaLISA assays were performed in triplicate in a 384-well format with BB buffer (phosphate-buffered saline supplemented with 0.5% BSA and 1 mM DTT). For the Beclin 1/Bcl-2 AlphaLISA, purified StrepII-SUMO-Beclin 1 was incubated with Bcl-2-6xHis proteins at 300 nM and 60 nM, respectively. For internal control AlphaLISA assays, StrepII-SUMO-6xHis protein (internal control) was used at 20 nM. […] Following the initial incubation, Strep-Tactin Alpha donor (AS106D) and anti-6xHis AlphaLISA acceptor beads (AL128M) were added to a final concentration of 40 μg/mL each and incubated at room temperature in the dark for an additional 1 h. All samples were evaluated in triplicate. Alpha signals were measured by an Envision plate reader (Perkin Elmer). Beclin 1/Bcl-2 Alpha signal was normalized with internal control Alpha signal. The normalized value represents the binding activity of Beclin 1 and Bcl-2. The percent activity of a compound was calculated as the following formula: […]
Protein or peptide concentrations used in dose-response AlphaLISA experiments were as follows: Beclin1/Bcl-2—300 nM/60 nM; SUMO (internal control for Beclin 1/Bcl-2 AlphaLISA)—20 nM; Beclin 1 BH3/Bcl-2—1000 nM/60 nM; Bax BH3/Bcl-2—100 nM/20 nM; Biotin-6xHis (internal control for BH3/Bcl-2 AlphaLISA)—10

Chain of Beclin 1/Bcl-2 interaction (P10415 1-218): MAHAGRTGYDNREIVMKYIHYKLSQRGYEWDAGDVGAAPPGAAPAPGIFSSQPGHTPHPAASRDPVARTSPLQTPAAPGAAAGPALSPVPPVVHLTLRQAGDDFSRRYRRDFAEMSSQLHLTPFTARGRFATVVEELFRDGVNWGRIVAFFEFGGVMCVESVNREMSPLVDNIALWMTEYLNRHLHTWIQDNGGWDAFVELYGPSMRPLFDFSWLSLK

Compound	IC50
CC1=NN(C(=O)c2ccc(Br)cc2)C(c2ccccc2)C1 (centres unmarked) [Lqr-8-296]	> 10000 nM
CC(C)(C)OC(=O)Nc1ccc(C2=NN(C(=O)c3ccc4c(c3)OCO4)C(c3ccccc3)C2)cc1 (centres unmarked) [Lqr-9-065]	6770 nM
Cc1ccc(C(=O)N2N=C(c3ccc(NS(C)(=O)=O)cc3)CC2c2ccco2)cc1 (centres unmarked) [lqr-8-177]	16200 nM
CS(=O)(=O)Nc1ccc(C2=NN(C(=O)c3ccc(Cl)cc3)C(c3ccco3)C2)cc1 (centres unmarked) [lqr-8-180]	2760 nM
CS(=O)(=O)Nc1ccc(C2=NN(C(=O)c3ccc(F)cc3)C(c3ccco3)C2)cc1 (centres unmarked) [lqr-8-183]	12800 nM
COc1ccc(C(=O)N2N=C(c3ccc(NS(C)(=O)=O)cc3)CC2c2ccco2)cc1 (centres unmarked) [lqr-8-185]	9900 nM
CS(=O)(=O)Nc1ccc(C2=NN(C(=O)c3ccc(Br)cc3)C(c3ccco3)C2)cc1 (centres unmarked) [lqr-8-186]	2420 nM
CS(=O)(=O)Nc1ccc(C2=NN(C(=O)c3ccc([N+](=O)[O-])cc3)C(c3ccco3)C2)cc1 (centres unmarked) [lqr-8-188]	1680 nM
CS(=O)(=O)Nc1ccc(C2=NN(C(=O)c3ccc(C(F)(F)F)cc3)C(c3ccco3)C2)cc1 (centres unmarked) [lqr-8-189]	2790 nM
CS(=O)(=O)Nc1ccc(C2=NN(C(=O)c3ccc(C#N)cc3)C(c3ccco3)C2)cc1 (centres unmarked) [lqr-8-190]	7230 nM
CS(=O)(=O)Nc1ccc(C2=NN(C(=O)c3ccc(I)cc3)C(c3ccco3)C2)cc1 (centres unmarked) [lqr-8-196]	2140 nM
Cc1ccc(C(=O)N2N=C(c3ccc(NC(=O)OC(C)(C)C)cc3)CC2c2ccco2)cc1 (centres unmarked) [lqr-8-203]	2880 nM
CCNc1ccc(C2=NN(C(=O)c3ccc(C)cc3)C(c3ccco3)C2)cc1 (centres unmarked) [lqr-8-219]	29800 nM
CC(C)(C)OC(=O)Nc1ccc(C2=NN(C(=O)c3ccc(Br)cc3)C(c3ccco3)C2)cc1 (centres unmarked) [lqr-8-231]	982 nM
CC(C)(C)OC(=O)Nc1ccc(C2=NN(C(=O)c3ccc([N+](=O)[O-])cc3)C(c3ccco3)C2)cc1 (centres unmarked) [lqr-8-233]	1240 nM
COC(=O)Nc1ccc(C2=NN(C(=O)c3ccc(C)cc3)C(c3ccco3)C2)cc1 (centres unmarked) [lqr-8-235]	1800 nM
Cc1ccc(C(=O)N2N=C(c3ccc(NS(C)(=O)=O)cc3)CC2c2ccccc2)cc1 (centres unmarked) [lqr-8-238]	905 nM
Cc1ccc(C(=O)N2N=C(c3ccc(NS(C)(=O)=O)cc3)CC2c2ccc(Br)cc2)cc1 (centres unmarked) [lqr-8-267]	13900 nM
Cc1ccc(C(=O)N2N=C(c3ccc(NS(C)(=O)=O)cc3)CC2c2ccccc2Br)cc1 (centres unmarked) [lqr-8-269]	9830 nM
Cc1ccc(C(=O)N2N=C(c3ccc(NS(C)(=O)=O)cc3)CC2c2ccc(C)cc2)cc1 (centres unmarked) [lqr-8-275]	14200 nM
CC(C)(C)OC(=O)Nc1ccc(C2=NN(C(=O)c3ccc(Br)cc3)C(c3ccccc3)C2)cc1 (centres unmarked) [lqr-8-278]	274 nM
CC(C)(C)OC(=O)Nc1ccc(C2=NN(C(=O)c3ccc([N+](=O)[O-])cc3)C(c3ccccc3)C2)cc1 (centres unmarked) [lqr-8-279]	349 nM
CC(C)(C)OC(=O)Nc1ccc(C2=NN(C(=O)c3ccc(Br)cc3)C(c3ccc(Br)o3)C2)cc1 (centres unmarked) [lqr-8-302]	2680 nM
O=C(c1ccc(Br)cc1)N1N=C(c2ccco2)CC1c1ccccc1 (centres unmarked) [lqr-8-309]	> 10000 nM

Compound	IC50
O=C(c1ccc(Br)cc1)N1N=C(c2ccc[nH]2)CC1c1ccccc1 (centres unmarked) [lqr-8-310]	> 10000 nM
COC(=O)Nc1ccc(C2=NN(C(=O)c3ccc(Br)cc3)C(c3ccccc3)C2)cc1 (centres unmarked) [lqr-9-008]	10000 nM
CC(C)(C)OC(=O)Nc1ccc(-c2cc(-c3ccccc3)[nH]n2)cc1 [lqr-9-012]	> 10000 nM
CC(C)(C)OC(=O)Nc1ccc(-c2cc(-c3ccccc3)n(C(=O)c3ccc(Br)cc3)n2)cc1 [lqr-9-013]	> 10000 nM
CC(C)(C)OC(=O)n1cccc1C1=NN(C(=O)c2ccc(Br)cc2)C(c2ccccc2)C1 (centres unmarked) [lqr-9-018]	> 10000 nM
CCC1CC(c2ccc(NC(=O)OC(C)(C)C)cc2)=NN1C(=O)c1ccc(Br)cc1 (centres unmarked) [lqr-9-026]	13000 nM
CC(C)(C)OC(=O)Nc1ccc(C2=NN(C(=O)c3ccc(Br)cc3)C(c3ccccn3)C2)cc1 (centres unmarked) [lqr-9-033]	455 nM
CC(C)(C)OC(=O)Nc1ccc(C2=NN(C(=O)c3ccc(Br)cc3)C(c3cccnc3)C2)cc1 (centres unmarked) [lqr-9-044]	1800 nM
CC(C)(C)OC(=O)Nc1ccc(C2=NN(C(=O)c3ccc(Br)cc3)C(c3ccncc3)C2)cc1 (centres unmarked) [lqr-9-046]	3000 nM
CC(C)(C)OC(=O)Nc1ccc(C2=NN(C(=O)c3ccc(Br)cc3)C(c3ccoc3)C2)cc1 (centres unmarked) [lqr-9-048]	4100 nM
CC(C)(C)OC(=O)Nc1cccc(C2=NN(C(=O)c3ccc(Br)cc3)C(c3ccccc3)C2)c1 (centres unmarked) [lqr-9-055]	12000 nM
CC(C)(C)OC(=O)Nc1ccc(C2=NN(C(=O)OC(C)(C)C)C(c3ccccc3)C2)cc1 (centres unmarked) [lqr-9-056]	> 10000 nM
O=C=Nc1ccc(C2=NN(C(=O)c3ccc(Br)cc3)C(c3ccccc3)C2)cc1 (centres unmarked) [lqr-9-068]	> 10000 nM
CC(C)NC(=O)Nc1ccc(C2=NN(C(=O)c3ccc(Br)cc3)C(c3ccccc3)C2)cc1 (centres unmarked) [lqr-9-076]	349 nM
CC(C)NC(=O)Nc1ccc(C2=NN(C(=O)c3ccc(Br)cc3)C(c3ccccc3)C2)cc1 (centres unmarked) [lqr-9-085]	63 nM
O=C1OCCN1c1ccc(C2=NN(C(=O)c3ccc(Br)cc3)C(c3ccccc3)C2)cc1 (centres unmarked) [lqr-9-088]	5140 nM
CC(C)(C)NC(=O)Nc1ccc(C2=NN(C(=O)c3ccc(Br)cc3)C(c3ccccc3)C2)cc1 (centres unmarked) [lqr-9-118]	9100 nM
CNC(=O)Nc1ccc(C2=NN(C(=O)c3ccc(Br)cc3)C(c3ccccc3)C2)cc1 (centres unmarked) [lqr-9-121]	5520 nM
CC(C)COC(=O)Nc1ccc(C2=NN(C(=O)c3ccc(Br)cc3)C(c3ccccc3)C2)cc1 (centres unmarked) [lqr-9-155]	184 nM
C=CCOC(=O)Nc1ccc(C2=NN(C(=O)c3ccc(Br)cc3)C(c3ccccc3)C2)cc1 (centres unmarked) [lqr-9-156]	< 156 nM
CCOC(=O)Nc1ccc(C2=NN(C(=O)c3ccc(Br)cc3)C(c3ccccc3)C2)cc1 (centres unmarked) [lqr-9-157]	< 156 nM
CN(C)C(=O)Nc1ccc(C2=NN(C(=O)c3ccc(Br)cc3)C(c3ccccc3)C2)cc1 (centres unmarked) [lqr-9-158]	2390 nM
O=C(Nc1ccc(C2=NN(C(=O)c3ccc(Br)cc3)C(c3ccccc3)C2)cc1)OC1CC1 (centres unmarked) [lqr-9-161]	< 156 nM

Source: patent US11591319B2, “Small molecule inducers of autophagy” (Board of Regents, The University of Texas System, priority 2018, dated 2023)
